CC[C@H]1OC(=O)[C@H](C)[C@@H](O[C@H]2C[C@@](C)(OC)[C@@H](O)[C@H](C)O2)[C@H](C)[C@@H](O[C@@H]2O[C@H](C)C[C@H](N(C)C)[C@H]2O)[C@](C)(O)C[C@@H](C)C(=O)[C@H](C)[C@@H](O)[C@]1(C)O.N#CS.O.O
solubility (mole fraction)
Settings | 288.15 K | 293.15 K | 298.15 K | 303.15 K | 308.15 K | 313.15 K | 318.15 K
in ethanol | 0.00426 | 0.00475 | 0.00525 | 0.00586 | 0.00679 | 0.00767 | 0.00856
in isopropanol | 0.00104 | 0.00121 | 0.00136 | 0.00157 | 0.00175 | 0.002 | 0.00227
in methanol | 0.0119 | 0.0128 | 0.0144 | 0.0158 | 0.0173 | 0.0189 | 0.0203
in n-propanol | 0.00409 | 0.00437 | 0.00488 | 0.00567 | 0.00643 | 0.00725 | 0.00841
